Read-outs that look alike come from different tables or passages of the source.
Assays:
[1] = Pharmacokinetic study in SD rats after oral administration of TWMM (UPLC-QQQ-MS of plasma); assay type: in vivo, Sprague-Dawley (SD) rats; details: oral TWMM 9.6 g/kg
Method: Chromatographic separation was performed using an ACQUITY UPLC H-Class system equipped with a 1.8 μm HSS T3 analytical column (100 mm × 2.1 i.d., Waters Corporation, Milford, USA). […] ESI source was set to negative ionisation mode while the analysis was performed using multiple reaction monitorin. Ion spray voltage (3000 V), capillary temperature (450 °C), and the source parameters of the nine compounds are shown in Table 2.
The data obtained from the UPLC/Q-Orbitrap MS was imported into Xcalibur 4.0 software for analysis. Furthermore, the constituents acquired using GCMS-QP 2010 were profiled by comparison using the National Institute of Standards and Technology (NIST) database. The pharmacokinetic data were processed through MassLynx 4.1, and DAS 2.0 software was used to calculate the pharmacokinetic parameters according to the compartment model.
Six male SD rats (average weight: 220 ± 10 g) were acquired from Beijing Vital-River Laboratory Animal Technology Co., Ltd. All rats were acclimatized to an environmentally controlled laboratory for a week. Following this period, the rats were exposed to fasting conditions for 12 h but were allowed free access to water before the experiment. The rats were orally administered TWMM at a dose of 9.6 g/kg. Blood samples (300 µL) were collected into heparinized centrifuge tubes from the fossa orbitalis at pre-dose and 0.03, 0.08, 0.17, 0.25, 0.5, 1, 2, 4, 8, 12, 24, and 36 h intervals. The samples were immediately centrifuged at 6000 g for 10 min at 4 °C and the supernatants were transferred to clean centrifuge tubes.
Each 100 µL plasma sample was mixed with 20 µL of methanol, 20 µL of IS (5 µg/mL), and 600 µL acetonitrile. The mixtures were centrifuged at 15,000 g for 10 min at 4 °C after being vortexed for 3 min. The obtained supernatants were transferred to clean 1.5 mL centrifuge tubes, followed by evaporation under a milt nitrogen stream. Next, the obtained residues were individually redissolved in 100 µL of methanol and centrifuged at 15,000 g for 10 min at 4 °C after vortexed for 3 min. Lastly, 10 µL of individual supernatant was injected for analysis.

[2] = Stability of QC samples of 8 compounds in rat plasma (25 °C 4 h, autosampler 12 h, three freeze-thaw cycles, −80 °C 7 d); assay type: in vitro ADME
Method: The calibration curves were assessed at eight concentration levels using the correlation coefficient (r). The lower limit of quantification (LLOQ) could fulfil the analytical requirements and achieved reliable accuracy and precision with a signal-to-noise ratio (S/N) ≥ 10. To determine intra- and inter-day precision and accuracy, six replicate quality control (QC) samples at three concentrations were prepared. Inter- and intra-day precision was evaluated by determining relative standard deviation (RSD) values, while accuracy was expressed in terms of the relative error (RE). The extraction recoveries were determined using three concentration levels and calculated by comparing the peak area of extracted samples with post-extracted spiked samples. Subsequently, matrix effects were assessed using the peak area of post-extracted spiked samples contrasted with QC samples at the three concentration levels. The stability test of QC samples at the three concentration levels was as follows: storage at 25 °C for 4 h, storage in an autosampler for 12 h, freeze-thaw cycle for three times, and storage at −80 °C for 7 d.
The stability tests were carried out under three freeze-thaw cycles, at 25 °C for 4 h, in an autosampler for 12 h, and at −80 °C for 7 d.

[3] = QC concentration 1 ng/mL, autosampler 12 h, 4 °C, rat plasma, n = 3
[4] = QC concentration 1 ng/mL, long term 7 day, –80 °C, rat plasma, n = 3
[5] = QC concentration 1 ng/mL, room temperature 25 °C, rat plasma, n = 3
[6] = QC concentration 1 ng/mL, three freeze/thaw cycles, rat plasma, n = 3
[7] = QC concentration 10 ng/mL, autosampler 12 h, 4 °C, rat plasma, n = 3
[8] = QC concentration 10 ng/mL, long term 7 day, –80 °C, rat plasma, n = 3
[9] = QC concentration 10 ng/mL, room temperature 25 °C, rat plasma, n = 3
[10] = QC concentration 10 ng/mL, three freeze/thaw cycles, rat plasma, n = 3
[11] = QC concentration 200 ng/mL, autosampler 12 h, 4 °C, rat plasma, n = 3
[12] = QC concentration 200 ng/mL, long term 7 day, –80 °C, rat plasma, n = 3
[13] = QC concentration 200 ng/mL, room temperature 25 °C, rat plasma, n = 3
[14] = QC concentration 200 ng/mL, three freeze/thaw cycles, rat plasma, n = 3

| Molecule | areas under the concentration-time curve (AUC0–∞) [1] [ng·h/mL] | AUC (0–36) ([1]; n = 6) [ng·h/mL] | AUC (0–∞) ([1]; n = 6) [ng·h/mL] | Cmax ([1]; n = 6) [ng/mL] | MRT (0–36) ([1]; n = 6) [h] | MRT (0–∞) ([1]; n = 6) [h] | Tmax ([1]; n = 6) [h] | t1/2 ([1]; n = 6) | Stability in rat plasma, Autosampler (12 h, 4 °C), Measured [2, 3] [ng/mL] | Stability in rat plasma, Long term (7 day, –80 °C), Measured [2, 4] [ng/mL] | Stability in rat plasma, Room temperature (4 h, 25 °C), Measured [2, 5] [ng/mL] | Stability in rat plasma, Three freeze/thaw cycles, Measured [2, 6] [ng/mL] | Stability in rat plasma, Autosampler (12 h, 4 °C), Measured [2, 7] [ng/mL] | Stability in rat plasma, Long term (7 day, –80 °C), Measured [2, 8] [ng/mL] | Stability in rat plasma, Room temperature (4 h, 25 °C), Measured [2, 9] [ng/mL] | Stability in rat plasma, Three freeze/thaw cycles, Measured [2, 10] [ng/mL] | Stability in rat plasma, Autosampler (12 h, 4 °C), Measured [2, 11] [ng/mL] | Stability in rat plasma, Long term (7 day, –80 °C), Measured [2, 12] [ng/mL] | Stability in rat plasma, Room temperature (4 h, 25 °C), Measured [2, 13] [ng/mL] | Stability in rat plasma, Three freeze/thaw cycles, Measured [2, 14] [ng/mL] | further results |
| --- | --- | --- | --- | --- | --- | --- | --- | --- | --- | --- | --- | --- | --- | --- | --- | --- | --- | --- | --- | --- | --- |
| CC=C1[C@H](O[C@@H]2O[C@H](CO)[C@@H](O)[C@H](O)[C@H]2O)OC=C(C(=O)OC)[C@H]1CC(=O)OC[C@H]1O[C@@H](OCCc2ccc(O)cc2)[C@H](O)[C@@H](O)[C@@H]1O (stereo in doubt) [Specnuezhenide] | 57.2 ± 30.2 | 48.62 ± 19.41 | 57.19 ± 30.25 | 13.33 ± 4.61 | 11.02 ± 5.63 | 19.29 ± 16.60 | 0.46 ± 0.29 | 20.27 ± 25.00 h | 1.1 ± 0.1 | 1.0 ± 0.1 | 1.0 ± 0.1 | 1.0 ± 0.0 | 9.8 ± 0.6 | 10.3 ± 0.6 | 10.7 ± 0.2 | 11.5 ± 0.6 | 198.2 ± 2.6 | 225.6 ± 9.0 | 212.7 ± 8.4 | 219.0 ± 8.4 | Tmax ([1]; n = 6, listed as specnuezhenide): ≤ 1 h |
| O=C(/C=C/c1ccc(O)c(O)c1)O[C@@H]1C[C@](O)(C(=O)O)C[C@@H](O)[C@H]1O [Chlorogenic acid] | – | – | – | – | – | – | – | rapid elimination | – | – | – | – | – | – | – | – | – | – | – | – | half-life ([1]; male, Sprague-Dawley, rat, n = 6): 2.71 ± 0.11 h; AUC(0-t) ([1]; male, Sprague-Dawley, rat, n = 6, read-out: AUC (0–36)): 34 ± 4.55 ng·h/mL; Cmax ([1]; male, Sprague-Dawley, rat, n = 6, read-out: Cmax): 16.1 ± 4.17 ng/mL; MRT last ([1]; male, Sprague-Dawley, rat, n = 6, read-out: MRT (0–36)): 4.97 ± 0.71 h; MRT inf ([1]; male, Sprague-Dawley, rat, n = 6, read-out: MRT (0–∞)): 4.97 ± 0.71 h; AUC(0-inf) ([1]; male, Sprague-Dawley, rat, read-out: areas under the concentration-time curve (AUC0–∞)): 34 ± 4.55 ng·h/mL; Tmax ([1]; male, Sprague-Dawley, rat, po, 9.6 g/kg, n = 6, read-out: Tmax): ≤ 1 h; Stability in rat plasma, Three freeze/thaw cycles, Measured ([2]; rat, plasma, 1 ng/mL): 1.1 ± 0.1 ng/mL; Stability in rat plasma, Three freeze/thaw cycles, Measured ([2]; rat, plasma, 10 ng/mL): 9.8 ± 0.8 ng/mL; Stability in rat plasma, Three freeze/thaw cycles, Measured ([2]; rat, plasma, 200 ng/mL): 212.6 ± 19.4 ng/mL; Stability in rat plasma, Room temperature (4 h, 25 °C), Measured ([2]; rat, plasma, 1 ng/mL): 1.2 ± 0.1 ng/mL; Stability in rat plasma, Room temperature (4 h, 25 °C), Measured ([2]; rat, plasma, 10 ng/mL): 9.2 ± 0.6 ng/mL; Stability in rat plasma, Room temperature (4 h, 25 °C), Measured ([2]; rat, plasma, 200 ng/mL): 187.6 ± 4.2 ng/mL; Stability in rat plasma, Autosampler (12 h, 4 °C), Measured ([2]; rat, plasma, 12 h, 1 ng/mL): 0.9 ± 0.1 ng/mL; Stability in rat plasma, Autosampler (12 h, 4 °C), Measured ([2]; rat, plasma, 12 h, 10 ng/mL): 9.1 ± 1.1 ng/mL; Stability in rat plasma, Autosampler (12 h, 4 °C), Measured ([2]; rat, plasma, 12 h, 200 ng/mL): 200.0 ± 14.0 ng/mL; Stability in rat plasma, Long term (7 day, –80 °C), Measured ([2]; rat, plasma, 168 h, 1 ng/mL): 1.0 ± 0.1 ng/mL; Stability in rat plasma, Long term (7 day, –80 °C), Measured ([2]; rat, plasma, 168 h, 10 ng/mL): 10.3 ± 0.5 ng/mL; Stability in rat plasma, Long term (7 day, –80 °C), Measured ([2]; rat, plasma, 168 h, 200 ng/mL): 214.4 ± 10.5 ng/mL |
| COc1ccc(-c2cc(=O)c3c(O)cc(O[C@@H]4O[C@H](CO[C@@H]5O[C@@H](C)[C@H](O)[C@@H](O)[C@H]5O)[C@@H](O)[C@H](O)[C@H]4O)cc3o2)cc1 [Linarin] | – | 12.04 ± 4.72 | 12.04 ± 4.72 | 12.78 ± 8.82 | 4.26 ± 2.67 | 4.26 ± 2.68 | 0.16 ± 0.10 | 2.81 ± 0.21 h | 1.1 ± 0.1 | 1.1 ± 0.1 | 1.0 ± 0.1 | 1.0 ± 0.0 | 10.2 ± 0.6 | 10.2 ± 0.4 | 11.9 ± 0.1 | 11.6 ± 0.5 | 208.5 ± 2.0 | 221.0 ± 11.2 | 223.3 ± 5.0 | 219.4 ± 13.8 | Tmax ([1]; n = 6, listed as linarin): ≤ 1 h; t1/2 ([1]; n = 6, listed as linarin): rapid elimination |
| Jaspolyside | 53.4 ± 32.2 | 46.59 ± 9.58 | 53.37 ± 32.17 | 14.25 ± 3.67 | 11.42 ± 1.29 | 15.62 ± 10.83 | 0.38 ± 0.31 | 29.15 ± 12.65 h | – | – | – | – | – | – | – | – | – | – | – | – | Tmax ([1]; n = 6, listed as jaspolyside): ≤ 1 h |
